Measured values from paper PMC3214022, “Plasmodium falciparum Parasites Are Killed by a Transition State Analogue of Purine Nucleoside Phosphorylase in a Primate Animal Model” (PLoS ONE, 2011).
“And” between values parts separate entries of the source, which are not always exact repeats. Identical values can stand only once.

Key:
human erythrocytes = test: Polyamine and purine levels in cultured cells after BCX4945 treatment (HPLC, UPLC/MS/MS); type: cell-based; conditions: uninfected erythrocytes, 5 µM BCX4945, 24 h
Method: Polyamines from 0.5 M PCA extracts were analyzed as the dansyl-derivatives by HPLC/fluorescence on a Waters Millennium system. Protein concentration was determined with a bicinchoninic acid (BCA) protein assay kit according to the manufacturer's instructions (Pierce) using BSA as a standard. Data from biological samples were normalized to the protein content.
Samples from blood cells, plasma and media were extracted and analyzed in duplicate. […] Samples were incubated for 20 min at 4 °C and neutralized with 5 M KOH at 10∶1 (v/v, HClO4/KOH) for 20 min at 4 °C. Plates were centrifuged (10 min at 4,000 rpm, 4°C) and supernatants were filtered through a MultiScreen® Filter Plate with Ultracel®-10 Membrane (Millipore). Metabolite and inhibitor levels were quantified by UPLC/MS/MS using a Xevo TQ mass spectrometer (Waters). […] Quantitative determination was performed in ESI positive-ion mode using multiple-reaction monitoring (MRM) mode. The ESI capillary voltage was 0.3 kV, source temperature was set at 150 °C and desolvation temperature at 450 °C. Data acquisition and analysis were carried out by MassLynx V4.1 and QuanLynx software (Waters). The concentration of the metabolites was calculated by interpolation of the observed analyte/internal standard peak-area ratio with the corresponding calibration curve.

[1] = Weights, CBC and blood chemistry, Table S1 sheet PK (pharmacokinetic study); type: in vivo, Aotus lemurinus lemurinus
Method: Laboratory bred Aotus lemurinus lemurinus monkeys (0.75–0.89 kg) were maintained as described. […] Blood samples were collected before the treatment started (t = 0), 0.05 h, 0.5 h, 1 h, 2 h, 6 h, 24 h, 48 h, and 6, 12 and 18 days after the first dose from each monkey and processed as described below. Pharmacokinetic parameters were calculated using PKSolver. For efficacy studies, Aotus monkeys were inoculated intravenously with 5×10^6 parasites of the FVO strain of P. falciparum in an approved treatment protocol. […] Parasitaemia was determined by Giemsa-stained thick blood smears prepared daily from the marginal ear vein [41]. Blood samples were collected from each monkey and transferred to tubes containing lithium heparin, centrifuged and both plasma and blood cells were frozen at −80 °C until analysis. Animals received a physical examination and blood chemistry profiles were monitored after treatment as described previously. Any monkey not responding appropriately to treatment was cured of its infection with mefloquine (40 mg kg^−1). […] The day of clearance is defined as the first of three consecutive days in which the thick blood films are parasite negative. The day of recrudescence is the first of three consecutive days of positive thick blood films after a period of clearance. Suppression is defined as a transient decrease in the parasite count post-treatment without clearance.

With `Nc1nc2c(CN3CC(O)C(CO)C3)c[nH]c2c(=O)[nH]1` (stereo not shown) [BCX4945, 4′-deaza-1′-aza-2′-deoxy-1′-(9-methylene)-Immucillin-G] the “Adenosine, cell pellet” value (human erythrocytes) was 2.60±0.03 (0.2) nmoles/mg protein, the “Adenosine, supernatant” value (human erythrocytes) was 0.6±0.2 (0.2) µM and the “BCX4945 level, cell pellet” value (human erythrocytes) was 36±12 (0.07) nmoles/mg protein. The “BCX4945 level, supernatant” value (human erythrocytes) was 4.0±0.2 (0.01) µM, the “Hypoxanthine, cell pellet” value (human erythrocytes) was 0 nmoles/mg protein and the “Hypoxanthine, supernatant” value (human erythrocytes) was 0 (0.04) µM. The “Inosine, cell pellet” value (human erythrocytes) was 37±6 (0.04) nmoles/mg protein, the “Inosine, supernatant” value (human erythrocytes) was 8±3 (0.08) µM and the “MTA, cell pellet” value (human erythrocytes) was 0 nmoles/mg protein. For the same compound, the “MTA, supernatant” value (human erythrocytes) was 0 µM, the “MTI, cell pellet” value (human erythrocytes) was 0 nmoles/mg protein and the “MTI, supernatant” value (human erythrocytes) was 0 µM. The “Putrescine, cell pellet” value (human erythrocytes) was 0 nmoles/mg protein, the “Spermidine, cell pellet” value (human erythrocytes) was 0.060±0.003 nmoles/mg protein and the “Spermine, cell pellet” value (human erythrocytes) was 0.030±0.002 nmoles/mg protein. For the same compound, the Creatine ([1]; IV 10 mg/kg once a day/3 days, monkeys 21014 (c1-5), 21007 (c6-10), 22014 (c11-15), 22004 (c16-20), days -2, 6, 12, 18 (22004: 19), 79, 10 mg/kg, day 12) was 0.55 mg/dL and 0.532 mg/dL, the Creatine ([1]; IV 10 mg/kg once a day/3 days, monkeys 21014 (c1-5), 21007 (c6-10), 22014 (c11-15), 22004 (c16-20), days -2, 6, 12, 18 (22004: 19), 79, 10 mg/kg, day -2) was <0.5 mg/dL and 0.5 mg/dL and the “Blood Urea Nitrogen” value ([1]; oral, one dose 50 mg/kg, monkey 23015, days -2, 6, 12, 19, 79 = c1-c5, 50 mg/kg) was less than 10.0 mg/dL. It also gave a Creatine ([1]; oral, three doses 50 mg/kg once a day/3 days, monkey 23029, days -2, 6, 12, 19, 79 = c11-c15) of less than 0.5 mg/dL.
